From patent US5484778A, “Phthalocyanine photosensitizers for photodynamic therapy and methods for their use” (priority 1993, dated 1996)
Where two headings read alike, the source gives them in different places.

Columns and labels:
[1] = test system: V79 cells; experiment: Clonogenicity, killing of V79 cells using photodynamic therapy (Table 3); assay type: cell-based, Chinese hamster; conditions: for Cell survival at highest light dose at 1 µM / Cell survival at highest light dose at 0.5 µM: Cricetulus griseus
Method: Using the cell culture methods described above, V79 cells Chinese hamster lung fibroblasts were treated with either 0.5 or 1.0 μM of the phthalocyanines listed in Table 3. About 18 hours thereafter, the cells were irradiated with increasing doses of 675 nm broad band red light from a 500 W tungsten-halogen lamp fitted with a 600 nm high pass filter, to determine the light dosage that would kill 90% of the phthalocyanine treated cells. Where 90% of the cells were not killed, the maximum percent of cells killed were determined, (expressed as % survival) and the related light dosage recorded.

[2] = test system: V79 cells; experiment: Uptake of additional phthalocyanines into V79 cells (Table 2); conditions: for Uptake into V79 cells: 18 hours; for Uptake into V79 cells, composite value: average of all data; for Uptake (from Table 2): repeated in Table 3; for dependence of uptake on phthalocyanine concentration: V79 cells, 1-4 μM; for Uptake into V79 cells, composite value (asterisk): asterisk: listed value is for 1 μM, average would be higher
Method: V79 cells Chinese hamster lung fibroblasts were cultured using the cell culture methods described above. […] When the filters were dry, the phthalocyanines were extracted into ethanol and the absorption determined at the peak wavelength, usually 668 nm.

[3] = V79, at 10 kJ/m^2, read-out: Maximum Effect (% survival)
[4] = V79, 1 μM, at 10 kJ/m^2, read-out: Maximum Effect (% survival)

CC(=O)OCCC[Si](C)(C)O[Si]1(O)n2c3c4ccccc4c2N=C2N=C(N=c4c5ccccc5c(n41)=NC1=NC(=N3)c3ccccc31)c1ccccc12 (stereo not drawn) [Compound XIII, HOSiPcOSi(CH3)2 (CH2)3 OCOCH3]
Cell survival at highest light dose at 1 µM ([1]; V79, 1 μM, at 15 kJ/m^2, read-out: Maximum Effect (% survival)): 88%
Uptake into V79 cells ([2]; 4 μM): 1.7 ± 0.3 n Moles/10^6 cells
Uptake into V79 cells, composite value [2]: 0.4 n Moles/10^6 cells/μM
Uptake (from Table 2) [2]: 0.4 n Moles/10^6 cells/μM

CCCCN(CCCC)CCC[Si](C)(C)O[Si]1(O)n2c3c4ccccc4c2N=C2N=C(N=c4c5ccccc5c(n41)=NC1=NC(=N3)c3ccccc31)c1ccccc12 (stereo not drawn) [Compound XXV, HOSiPcOSi(CH3)2 (CH2)3 N(CH2)3 CH3)2]
Cell survival at highest light dose at 0.5 µM ([1]; V79, at 8 kJ/m^2, read-out: Maximum Effect (% survival)): 87%
Uptake into V79 cells ([2]; 1 μM): 0.02 ± 0.02 n Moles/10^6 cells
Uptake into V79 cells ([2]; 4 μM): 1.5 ± 0.3 n Moles/10^6 cells
dependence of uptake on phthalocyanine concentration [2]: not linearly dependent upon the phthalocyanine concentration
Uptake into V79 cells, composite value (asterisk) [2]: < 0.05 n Moles/10^6 cells/μM
Uptake (from Table 2) [2]: < 0.05 n Moles/10^6 cells/μM

C[Si](C)(CCCN1CCSCC1)O[Si]1(O)n2c3c4ccccc4c2N=C2N=C(N=c4c5ccccc5c(n41)=NC1=NC(=N3)c3ccccc31)c1ccccc12 (stereo not drawn) [Compound XXIV, HOSiPCOSi(CH3)2 (CH2)3 NC4 H8 S]
Cell survival at highest light dose at 0.5 µM [1, 3]: 100%
Uptake into V79 cells ([2]; 1 μM): 0.003 ± 0.001 n Moles/10^6 cells
Uptake into V79 cells ([2]; 4 μM): 1.3 ± 0.1 n Moles/10^6 cells
dependence of uptake on phthalocyanine concentration [2]: not linearly dependent upon the phthalocyanine concentration
Uptake into V79 cells, composite value (asterisk) [2]: < 0.05 n Moles/10^6 cells/μM
Uptake (from Table 2) [2]: < 0.05 n Moles/10^6 cells/μM

C[Si](C)(CCCO)O[Si]1(O)n2c3c4ccccc4c2N=C2N=C(N=c4c5ccccc5c(n41)=NC1=NC(=N3)c3ccccc31)c1ccccc12 (stereo not drawn) [Compound XVII, HOSiPCOSi(CH3)2 (CH2)3 OH]
Cell survival at highest light dose at 1 µM [1, 4]: 19%
Uptake into V79 cells ([2]; 4 μM): 1.7 ± 0.2 n Moles/10^6 cells
Uptake into V79 cells, composite value [2]: 0.4 n Moles/10^6 cells/μM
Uptake (from Table 2) [2]: 0.4 n Moles/10^6 cells/μM

C[Si](C)(CCCN1CCOCC1)O[Si]1(O)n2c3c4ccccc4c2N=C2N=C(N=c4c5ccccc5c(n41)=NC1=NC(=N3)c3ccccc31)c1ccccc12 (stereo not drawn) [Compound XIX, HOSiPcOSi(CH3)2 (CH2)3 NC4 H8 O]
Cell survival at highest light dose at 1 µM [1, 4]: 81%
photosensitizing activity, killing V79 cells (in words) ([1]; discussion of Table 3): less active as a photosensitizer
uptake by V79 cells (in words) [2]: poor uptake
Uptake into V79 cells ([2]; 1 μM): 0.3 ± 0.1 n Moles/10^6 cells
Uptake into V79 cells ([2]; 4 μM): 2.4 ± 0.5 n Moles/10^6 cells
dependence of uptake on phthalocyanine concentration [2]: not linearly dependent upon the phthalocyanine concentration
Uptake into V79 cells, composite value (asterisk) [2]: 0.3 n Moles/10^6 cells/μM
Uptake (from Table 2) [2]: 1.3 n Moles/10^6 cells/μM

C[Si](C)(CCCN=C=S)O[Si]1(O)n2c3c4ccccc4c2N=C2N=C(N=c4c5ccccc5c(n41)=NC1=NC(=N3)c3ccccc31)c1ccccc12 (stereo not drawn) [Compound XXVI, HOSiPcOSi(CH3)2 (CH2)3 NCS]
Cell survival at highest light dose at 1 µM ([1]; V79, read-out: Maximum Effect (% survival)): 100%

CCCCN1CCN(CCC[Si](C)(C)O[Si]2(O)n3c4c5ccccc5c3N=C3N=C(N=c5c6ccccc6c(n52)=NC2=NC(=N4)c4ccccc42)c2ccccc23)CC1 (stereo not drawn) [Compound XXXI, HOSiPCOSi(CH3)2 (CH2)3 NC4 H8 N(CH2)3 CH3]
Cell survival at highest light dose at 0.5 µM [1, 3]: 30%
Uptake into V79 cells ([2]; 2 μM): 0.61 ± 0.1 n Moles/10^6 cells
Uptake into V79 cells, composite value [2]: 0.3 n Moles/10^6 cells/μM
Uptake (from Table 2) [2]: 0.3 n Moles/10^6 cells/μM
